From patent US9211310B2, “Use of a Chinese medicine composition in preparing medicaments for treating secondary prevention of myocardial infarction” (TASLY PHARMACEUTICAL GROUP CO., LTD, priority 2010, dated 2015)

Test system: patients after acute myocardial infarction
Test: Life quality, Seattle Angina Questionnaire (SAQ), same clinical trial
Type: in vivo, human
Source text: 3508 patients who were in accordance with the diagnostic standards of AMI for 28 days to 2 years and differentiated as Qi deficiency and blood stagnation syndrome by TCM were studied. 0.5 g Chinese medicine composition prepared by the method of EXAMPLE 1 (Coded as QSYQ) was administrated half an hour after meal, 3 times per day.
There were 19 questions in the Seattle angina questionnaire (SAQ), including 5 parts: physical limitation (PL), anginal stability (AS), anginal frequency (AF), treatment satisfaction (TS) and disease perception (DP). After being given necessary explanation by doctors, the questions were answered independently by patients.
They included the overall survival time, angina pectoris score, TCM symptom score and life quality score, where angina pectoris score, TCM symptom score and life quality score were evaluated at randomization, in 1st, 3rd, 6th, 9th, 12th month after treatment and 18th month after follow-up.
All evaluation results of SAQ were described during the period of observation, and Wilcoxon rank sum test was used for inter-group comparison.
The evaluation results in the SAQ were depicted in different observations, and inter-group comparison was tested by Wilcoxon Rank-sum test.

Q: With `CC(=O)Oc1ccccc1C(=O)O` [Control group, aspirine] as the compound, how does the “SAQ 2nd question: Slightly increased, cases” value (1 month after treatment, PP) read?
A: Its value is 43.

Q: What about the “SAQ 2nd question: Slightly reduced, % of cases” value (1 month after treatment, PP) of the same compound?
A: Its value is “(30.18%)”.

Q: And the “SAQ 2nd question: Slightly reduced, cases” value (1 month after treatment, PP)?
A: The value was 447.

Q: And the “SAQ 3rd question: 1-2 times per week, % of cases” value (1 month after treatment, PP)?
A: The value was “(30.18%)”.

Q: And the “SAQ 3rd question: 1-2 times per week, cases” value (1 month after treatment, PP)?
A: Its value is 447.

Q: And the “SAQ 3rd question: 1-3 times per day, % of cases” value (1 month after treatment, PP)?
A: The value was “(2.90%)”.

Q: And the “SAQ 3rd question: 1-3 times per day, cases” value (1 month after treatment, PP)?
A: The value was 43.

Q: What about the “SAQ 3rd question: <1 time per week, % of cases” value (1 month after treatment, PP) of the same compound?
A: Its value is “(16.75%)”.

Q: What about the “SAQ 3rd question: <1 time per week, cases” value (1 month after treatment, PP) of the same compound?
A: The value was 248.

Q: And the “SAQ 3rd question: No onset, % of cases” value (1 month after treatment, PP)?
A: The value was “(0.00%)”.

Q: What about the “SAQ 3rd question: No onset, cases” value (1 month after treatment, PP) of the same compound?
A: The value was 0.

Q: What about the “SAQ 3rd question: ≧3 times per week, % of cases” value (1 month after treatment, PP) of the same compound?
A: The value was “(49.63%)”.

Q: And the “SAQ 3rd question: ≧3 times per week, cases” value (1 month after treatment, PP)?
A: Its value is 735.

Q: What about the “SAQ 3rd question: ≧4 times per day, % of cases” value (1 month after treatment, PP) of the same compound?
A: The value was “(0.54%)”.

Q: And the “SAQ 3rd question: ≧4 times per day, cases” value (1 month after treatment, PP)?
A: Its value is 8.

Q: And the “SAQ Question 1-3: Mildly limited, number of patients” value (1 month after treatment, PP)?
A: Its value is 114.

Q: And the “SAQ Question 1-3: Mildly limited, percent of patients” value (1 month after treatment, PP)?
A: The value was “(7.67%)”.

Q: And the “SAQ Question 1-3: Moderately limited, number of patients” value (1 month after treatment, PP)?
A: The value was 25.

Q: What about the “SAQ Question 1-3: Moderately limited, percent of patients” value (1 month after treatment, PP) of the same compound?
A: Its value is “(1.68%)”.

Q: What about the “SAQ Question 1-3: Not limited, number of patients” value (1 month after treatment, PP) of the same compound?
A: The value was 1064.

Q: What about the “SAQ Question 1-3: Not limited, percent of patients” value (1 month after treatment, PP) of the same compound?
A: The value was “(71.60%)”.

Q: What about the “SAQ Question 1-3: Other reasons, number of patients” value (1 month after treatment, PP) of the same compound?
A: The value was 7.

Q: And the “SAQ Question 1-3: Other reasons, percent of patients” value (1 month after treatment, PP)?
A: Its value is “(0.47%)”.

Q: What about the “SAQ Question 1-3: Severely limited, number of patients” value (1 month after treatment, PP) of the same compound?
A: Its value is 5.

Q: And the “SAQ Question 1-3: Severely limited, percent of patients” value (1 month after treatment, PP)?
A: The value was “(0.34%)”.

Q: And the “SAQ Question 1-3: Slightly limited, number of patients” value (1 month after treatment, PP)?
A: Its value is 271.

Q: What about the “SAQ Question 1-3: Slightly limited, percent of patients” value (1 month after treatment, PP) of the same compound?
A: The value was “(18.24%)”.

Q: And the “SAQ Question 1-4: Mildly limited, number of patients” value (1 month after treatment, PP)?
A: The value was 303.

Q: What about the “SAQ Question 1-4: Mildly limited, percent of patients” value (1 month after treatment, PP) of the same compound?
A: Its value is “(20.43%)”.

Q: What about the “SAQ Question 1-4: Moderately limited, number of patients” value (1 month after treatment, PP) of the same compound?
A: Its value is 138.

Q: What about the “SAQ Question 1-4: Moderately limited, percent of patients” value (1 month after treatment, PP) of the same compound?
A: Its value is “(9.31%)”.

Q: What about the “SAQ Question 1-4: Not limited, number of patients” value (1 month after treatment, PP) of the same compound?
A: Its value is 521.

Q: And the “SAQ Question 1-4: Not limited, percent of patients” value (1 month after treatment, PP)?
A: Its value is “(35.13%)”.

Q: And the “SAQ Question 1-4: Other reasons, number of patients” value (1 month after treatment, PP)?
A: Its value is 11.

Q: And the “SAQ Question 1-4: Other reasons, percent of patients” value (1 month after treatment, PP)?
A: The value was “(0.74%)”.

Q: What about the “SAQ Question 1-4: Severely limited, number of patients” value (1 month after treatment, PP) of the same compound?
A: The value was 27.

Q: And the “SAQ Question 1-4: Severely limited, percent of patients” value (1 month after treatment, PP)?
A: The value was “(1.82%)”.

Q: What about the “SAQ Question 1-4: Slightly limited, number of patients” value (1 month after treatment, PP) of the same compound?
A: Its value is 483.

Q: What about the “SAQ Question 1-4: Slightly limited, percent of patients” value (1 month after treatment, PP) of the same compound?
A: Its value is “(32.57%)”.

Q: And the “SAQ Question 1-5: Mildly limited, number of patients” value (1 month after treatment, PP)?
A: Its value is 278.

Q: What about the “SAQ Question 1-5: Mildly limited, percent of patients” value (1 month after treatment, PP) of the same compound?
A: Its value is “(18.76%)”.

Q: And the “SAQ Question 1-5: Moderately limited, number of patients” value (1 month after treatment, PP)?
A: The value was 166.

Q: What about the “SAQ Question 1-5: Moderately limited, percent of patients” value (1 month after treatment, PP) of the same compound?
A: Its value is “(11.20%)”.

Q: And the “SAQ Question 1-5: Not limited, number of patients” value (1 month after treatment, PP)?
A: The value was 546.

Q: What about the “SAQ Question 1-5: Not limited, percent of patients” value (1 month after treatment, PP) of the same compound?
A: The value was “(36.84%)”.

Q: And the “SAQ Question 1-5: Other reasons, number of patients” value (1 month after treatment, PP)?
A: Its value is 9.

Q: And the “SAQ Question 1-5: Other reasons, percent of patients” value (1 month after treatment, PP)?
A: Its value is “(0.61%)”.

Q: And the “SAQ Question 1-5: Severely limited, number of patients” value (1 month after treatment, PP)?
A: The value was 24.

Q: And the “SAQ Question 1-5: Severely limited, percent of patients” value (1 month after treatment, PP)?
A: The value was “(1.62%)”.

Q: And the “SAQ Question 1-5: Slightly limited, number of patients” value (1 month after treatment, PP)?
A: Its value is 459.

Q: What about the “SAQ Question 1-5: Slightly limited, percent of patients” value (1 month after treatment, PP) of the same compound?
A: Its value is “(30.97%)”.

Q: And the “SAQ Question 1-9: Mildly limited, % of cases” value (1 month after treatment, PP)?
A: Its value is “(16.54%)”.

Q: What about the “SAQ Question 1-9: Mildly limited, cases” value (1 month after treatment, PP) of the same compound?
A: Its value is 239.

Q: What about the “SAQ Question 1-9: Moderately limited, % of cases” value (1 month after treatment, PP) of the same compound?
A: Its value is “(21.45%)”.

Q: What about the “SAQ Question 1-9: Moderately limited, cases” value (1 month after treatment, PP) of the same compound?
A: Its value is 310.

Q: And the “SAQ Question 1-9: Not limited, % of cases” value (1 month after treatment, PP)?
A: The value was “(2.98%)”.

Q: What about the “SAQ Question 1-9: Not limited, cases” value (1 month after treatment, PP) of the same compound?
A: The value was 43.

Q: And the “SAQ Question 1-9: Other reasons, % of cases” value (1 month after treatment, PP)?
A: The value was “(6.44%)”.

Q: What about the “SAQ Question 1-9: Other reasons, cases” value (1 month after treatment, PP) of the same compound?
A: The value was 93.

Q: What about the “SAQ Question 1-9: Severely limited, % of cases” value (1 month after treatment, PP) of the same compound?
A: Its value is “(42.70%)”.

Q: What about the “SAQ Question 1-9: Severely limited, cases” value (1 month after treatment, PP) of the same compound?
A: Its value is 617.

Q: What about the “SAQ Question 1-9: Slightly limited, % of cases” value (1 month after treatment, PP) of the same compound?
A: Its value is “(9.90%)”.

Q: And the “SAQ Question 1-9: Slightly limited, cases” value (1 month after treatment, PP)?
A: The value was 143.

Q: What about the “SAQ 2nd question: Clearly increased, % of cases” value (3 months after treatment, FAS) of the same compound?
A: The value was “(0.92%)”.

Q: And the “SAQ 2nd question: Clearly increased, cases” value (3 months after treatment, FAS)?
A: The value was 16.

Q: What about the “SAQ 2nd question: Clearly reduced, % of cases” value (3 months after treatment, FAS) of the same compound?
A: Its value is “(21.15%)”.

Q: What about the “SAQ 2nd question: Clearly reduced, cases” value (3 months after treatment, FAS) of the same compound?
A: The value was 368.

Q: And the “SAQ 2nd question: Same, % of cases” value (3 months after treatment, FAS)?
A: Its value is “(42.13%)”.

Q: And the “SAQ 2nd question: Same, cases” value (3 months after treatment, FAS)?
A: The value was 733.

Q: And the “SAQ 2nd question: Slightly increased, % of cases” value (3 months after treatment, FAS)?
A: The value was “(3.79%)”.

Q: What about the “SAQ 2nd question: Slightly increased, cases” value (3 months after treatment, FAS) of the same compound?
A: The value was 66.

Q: And the “SAQ 2nd question: Slightly reduced, % of cases” value (3 months after treatment, FAS)?
A: Its value is “(32.01%)”.

Q: And the “SAQ 2nd question: Slightly reduced, cases” value (3 months after treatment, FAS)?
A: The value was 557.

Q: And the “SAQ 3rd question: 1-2 times per week, % of cases” value (3 months after treatment, FAS)?
A: Its value is “(32.01%)”.

Q: What about the “SAQ 3rd question: 1-2 times per week, cases” value (3 months after treatment, FAS) of the same compound?
A: The value was 557.

Q: And the “SAQ 3rd question: 1-3 times per day, % of cases” value (3 months after treatment, FAS)?
A: The value was “(3.79%)”.

Q: What about the “SAQ 3rd question: 1-3 times per day, cases” value (3 months after treatment, FAS) of the same compound?
A: Its value is 66.
